# Patent US20240226049A1, “METHODS OF TREATMENT USING BEMPEDOIC ACID” (Esperion Therapeutics, Inc., priority 2023, published 2024)
# What was measured:
# [1] = test system: primary prevention patients unable to tolerate recommended doses of statins; assay: CLEAR OUTCOMES primary prevention subgroup (Example 2): investigator-reported adverse events and safety laboratory findings; format: in vivo
# Description: The rationale, design and methods of the CLEAR Outcomes trial is described in Example 1. The trial was conducted at 1250 sites in 32 countries and designed by the Cleveland Clinic Coordinating Center for Clinical Research (C5Research) and an academic Executive Committee in collaboration with the sponsor. The protocol was approved by ethics committees at participating sites and all patients provided written informed consent before enrollment. A contract research organization collected the data which were transferred to C5Research at completion of the trial whose statisticians conducted the analyses described herein. An independent Data Monitoring Committee monitored the trial.
# Primary prevention patients 18 to 85 years of age with an LDL cholesterol ≥100 mg/dL with clinical features placing them at high risk for a first cardiovascular event were eligible. Criteria for high cardiovascular risk included risk scores, such as the Reynolds Risk Score and the SCORE project (Ridker et al., Development and validation of improved algorithms for the assessment of global cardiovascular risk in women: the Reynolds Risk Score, JAMA. 2007 Feb. 14; 297(6):611-9; Ridker et al., C-reactive protein and parental history improve global cardiovascular risk prediction. The Reynolds Risk Score for men, Circulation. 2008; 118: 2243-2251; European Guidelines on CVD Prevention in Clinical Practice. 2016. Eur J Prev Cardiol. 2016 July; 23(11):NP1-NP96), a coronary artery calcium score >400 Agatston units (AU) or presence of either type 1 or 2 diabetes in women aged >65 years or men older than 60 years.
# Investigators were responsible for assessing the patient for statin intolerance. Patients had to report statin intolerance due to an adverse effect that started or increased during statin therapy and resolved or improved after statin therapy was discontinued. Entry criteria required inability to tolerate 2 or more statins at any dose or 1 statin and unwillingness to attempt a second statin or advised by a physician not to attempt taking a second statin. Both the patient and site investigator were required to provide written confirmation that the patient was statin intolerant and aware of the benefits of statins to reduce the risk of cardiovascular events, including death, and acknowledge that many patients who are unable to tolerate a statin can tolerate a different statin or dose. Patients could be enrolled if they tolerated a very low average daily statin dose defined as rosuvastatin <5 mg, atorvastatin <10 mg, simvastatin <10 mg, lovastatin <20 mg, pravastatin <40 mg, fluvastatin <40 mg, or pitavastatin <2 mg. Other background lipid-lowering therapies were permitted, including ezetimibe, niacin, bile acid resins, fibrates, and/or proprotein convertase subtilisin kexin type 9 (PCSK9) inhibitors.
# Eligible patients entered a 4-week run-in period during which patients were treated with single-blind placebo. If patients were intolerant to placebo treatment or if adherence was <80% by tablet count, they were not eligible for randomization. Patients who successfully completed the run-in period were randomly assigned in a 1:1 ratio to receive a 180 mg oral dose of bempedoic acid or matching placebo, administered daily. During the trial, LDL cholesterol and hsCRP results were masked. Beginning 6 months after randomization, the central laboratory notified the investigator, who remained blinded to treatment assignment, if the patient's LDL cholesterol level was ≥25% higher than baseline. Repeat testing was performed after the patient was counseled about diet and encouraged to take all medications as prescribed. The patient returned for a repeat fasting blood lipid profile to confirm whether the LDL cholesterol value exceeded the threshold criteria. If confirmed, the patient's treatment regimen for LDL cholesterol lowering could be adjusted, per standard of care and local practice. […]
# [2] = test system: statin-intolerant patients with or at high risk of CVD; format: in vivo
# Description: CLEAR OUTCOMES (described in Example 1) was a randomized double-blind trial comparing orally administered bempedoic acid 180 mg once daily to placebo in statin-intolerant patients with or at high risk of CVD and an LDL-C ≥2.59 mmol/L. This prespecified analysis reports the time to event analysis of bempedoic acid versus placebo on the primary endpoint (MACE-4; composite of CV death, nonfatal MI, nonfatal stroke, or coronary revascularization) and key secondary end-point (MACE-3; death from cardiovascular causes, nonfatal myocardial infarction, nonfatal stroke) by baseline glycaemia status (diabetes, prediabetes, and normoglycaemia), and impact on HbA1c at 1 and 3 years and on NOD for subjects without diabetes at baseline.
# [3] = primary prevention safety population
# [4] = primary prevention safety population, N = 2104
# [5] = primary prevention, after 6 months
# [6] = primary prevention, after 12 months
# [7] = baseline diabetes, median 3.4 year follow up
# [8] = baseline normoglycaemia, p<0.0001
# [9] = baseline normoglycemia, median 3.4 year follow up
# [10] = baseline pre-diabetes, median 3.4 year follow up
# [11] = baseline pre-diabetes, p<0.0001
# [12] = diabetes, primary prevention CVD risk group
# [13] = diabetes, secondary prevention CVD risk group
# [14] = vs placebo, baseline normoglycemia
# [15] = vs placebo, baseline pre-diabetes
# [16] = vs placebo, diabetes, primary prevention
# [17] = vs placebo, diabetes, secondary prevention
# [18] = vs placebo, history of one or more cardiovascular events
# [19] = vs placebo, no prior history of cardiovascular events
structure (smiles),measurement,setting,value
"CC(C)(CCCCCC(O)CCCCCC(C)(C)C(=O)O)C(=O)O [Bempedoic Acid, Bempedoic acid]","New onset diabetes in patients with pre-diabetes at baseline, %",[1]; [3],(8.4) %
same,"New onset diabetes in patients without diabetes at baseline, %",[1]; [3],(6.4) %
same,"Adjudicated tendon rupture, %",[1]; [4],1.4%
same,"Adverse event leading to drug discontinuation, %",[1]; [4],9.9%
same,"Any treatment emergent adverse event, %",[1]; [4],84.8%
same,"Atrial fibrillation, %",[1]; [4],2.5%
same,"Cholelithiasis, %",[1]; [4],2.5%
same,"Discontinuation of treatment due to myalgia, %",[1]; [4],1.4%
same,"Elevated hepatic enzymes, %",[1]; [4],4.5%
same,"Gout, %",[1]; [4],2.6%
same,"Hyperuricemia, %",[1]; [4],12.1%
same,"Hypoglycemia, %",[1]; [4],4.9%
same,"Malignancies, %",[1]; [4],4.0%
same,"Muscular disorders, %",[1]; [4],12.8%
same,"Myalgias, %",[1]; [4],4.2%
same,"Neurocognitive disorders, %",[1]; [4],0.4%
same,"Renal impairment, %",[1]; [4],10.3%
same,"Serious treatment emergent adverse event, %",[1]; [4],19.9%
same,"Tendinopathies, %",[1]; [4],1.8%
same,"Change from baseline in creatinine levels, mean (SD)",[1]; [5],0.05 (0.19) mg/dL
same,"Change from baseline in uric acid level, mean (SD)",[1]; [5],0.80 (1.1)^ mg/dL
same,"Patients with creatinine >1.5 mg/dL, %",[1]; [5],(3.3%)
same,"Patients with uric acid level >8.5 mg/dL, %",[1]; [5],(10.8%)
same,"Change from baseline in glycated hemoglobin level (%), patients with diabetes at baseline",[1]; [6],0.03(0.96) %
same,"Change from baseline in glycated hemoglobin level (%), patients without diabetes at baseline",[1]; [6],0.02(0.26) %
same,Change from baseline in glycated hemoglobin level (%),"[1]; primary prevention, after 12 months, not a prespecified safety measure",0.03 (0.79) %
same,"Aspartate aminotransferase level >3 times ULN, %","[1]; primary prevention, at any visit",3.5%
same,"Creatine kinase levels >10x ULN (single occurrence), %","[1]; primary prevention, at any visit, N = 2104",0.2%
same,"Alanine aminotransferase level >3 times ULN, %","[1]; primary prevention, at any visit, repeated and confirmed",2.1%
same,"Worsening hyperglycemia, %","[1]; primary prevention, in patients with diabetes at baseline",(21.6) %
same,"Time to First Adjudicated MACE-3, Diabetes, % of patients",[2]; [7],8.9%
same,"Time to First Adjudicated MACE-3, Diabetes, patients with event/patients",[2]; [7],279/3144
same,"Time to First Adjudicated MACE-4, Diabetes, % of patients",[2]; [7],11.9%
same,"Time to First Adjudicated MACE-4, Diabetes, patients with event/patients",[2]; [7],374/3144
same,"LDL-C reduction compared to placebo at month 6, patients with diabetes","[2]; baseline diabetes, p<0.0001",21.2%
same,"LDL-C reduction compared to placebo at month 6 in absolute terms, patients with diabetes","[2]; baseline diabetes, p<0.0001",0.73 mmol/L
same,"LDL-C reduction compared to placebo at month 6, patients with normoglycaemia",[2]; [8],22.0%
same,"LDL-C reduction compared to placebo at month 6 in absolute terms, patients with normoglycaemia",[2]; [8],0.81 mmol/L
same,"Time to First Adjudicated MACE-3, Normoglycemia, % of patients",[2]; [9],7.2%
same,"Time to First Adjudicated MACE-3, Normoglycemia, patients with event/patients",[2]; [9],67/937
same,"Time to First Adjudicated MACE-4, Normoglycemia, % of patients",[2]; [9],10.1%
same,"Time to First Adjudicated MACE-4, Normoglycemia, patients with event/patients",[2]; [9],95/937
same,"Time to First Adjudicated MACE-3, Pre-Diabetes, % of patients",[2]; [10],7.9%
same,"Time to First Adjudicated MACE-3, Pre-Diabetes, patients with event/patients",[2]; [10],229/2911
same,"Time to First Adjudicated MACE-4, Pre-Diabetes, % of patients",[2]; [10],12.0%
same,"Time to First Adjudicated MACE-4, Pre-Diabetes, patients with event/patients",[2]; [10],350/2911
same,"LDL-C reduction compared to placebo at month 6, patients with pre-diabetes",[2]; [11],20.7%
same,"LDL-C reduction compared to placebo at month 6 in absolute terms, patients with pre-diabetes",[2]; [11],0.76 mmol/L
same,"Time to First Adjudicated MACE-3, Diabetes, Primary Prevention, % of patients",[2]; [12],4.9%
same,"Time to First Adjudicated MACE-3, Diabetes, Primary Prevention, patients with event/patients",[2]; [12],67/1369
same,"Time to First Adjudicated MACE-4, Diabetes, Primary Prevention, % of patients",[2]; [12],6.4%
same,"Time to First Adjudicated MACE-4, Diabetes, Primary Prevention, patients with event/patients",[2]; [12],87/1369
same,"Time to First Adjudicated MACE-3, Diabetes, Secondary Prevention, % of patients",[2]; [13],11.9%
same,"Time to First Adjudicated MACE-3, Diabetes, Secondary Prevention, patients with event/patients",[2]; [13],212/1775
same,"Time to First Adjudicated MACE-4, Diabetes, Secondary Prevention, % of patients",[2]; [13],16.2%
same,"Time to First Adjudicated MACE-4, Diabetes, Secondary Prevention, patients with event/patients",[2]; [13],287/1775
same,"reduction in risk of MACE (CV death, non-fatal MI or non-fatal stroke), adult with diabetes","[2]; vs placebo, 180 mg oral daily",about 20%
same,"reduction in risk of MACE (CV death, non-fatal MI, non-fatal stroke or coronary revascularization), adult with diabetes","[2]; vs placebo, 180 mg oral daily",about 17%
same,"Time to First Adjudicated MACE-3, Diabetes, HR","[2]; vs placebo, baseline diabetes",0.80
same,"Time to First Adjudicated MACE-4, Diabetes, HR","[2]; vs placebo, baseline diabetes",0.83
same,"Time to First Adjudicated MACE-3, Normoglycemia, HR",[2]; [14],0.96
same,"Time to First Adjudicated MACE-4, Normoglycemia, HR",[2]; [14],0.84
same,"Time to First Adjudicated MACE-3, Pre-Diabetes, HR",[2]; [15],0.92
same,"Time to First Adjudicated MACE-4, Pre-Diabetes, HR",[2]; [15],0.94
same,"Time to First Adjudicated MACE-3, Diabetes, Primary Prevention, HR",[2]; [16],0.65
same,"Time to First Adjudicated MACE-4, Diabetes, Primary Prevention, HR",[2]; [16],0.70
same,"Time to First Adjudicated MACE-3, Diabetes, Secondary Prevention, HR",[2]; [17],0.86
same,"Time to First Adjudicated MACE-4, Diabetes, Secondary Prevention, HR",[2]; [17],0.87
same,"reduction in risk of MACE (CV death, non-fatal MI or non-fatal stroke), adult with diabetes at risk for a secondary MACE",[2]; [18],at least 14%
same,"reduction in risk of MACE (CV death, non-fatal MI, non-fatal stroke or coronary revascularization), adult with diabetes at risk for a secondary MACE",[2]; [18],about 13%
same,"reduction in risk of MACE (CV death, non-fatal MI or non-fatal stroke), adult with diabetes at risk for a primary MACE",[2]; [19],about 35%
same,"reduction in risk of MACE (CV death, non-fatal MI, non-fatal stroke or coronary revascularization), adult with diabetes at risk for a primary MACE",[2]; [19],about 30%
